Results published in ChEMBL document CHEMBL2440076, “New triarylpyrazoles as broad-spectrum anticancer agents: design, synthesis, and biological evaluation” (Eur J Med Chem, 2013).

What was measured:
MCF7 = test: Growth inhibition of human MCF7 cells assessed as cell growth at 10 uM after 48 hrs by sulforhodamine B assay; type: functional; settings: MCF7, 48 h, read-out: Activity
MDA-MB-231 = test: Growth inhibition of human MDA-MB-231 cells assessed as cell growth at 10 uM after 48 hrs by sulforhodamine B assay; type: functional; settings: MDA-MB-231, 48 h, read-out: Activity
DU-145 [1] = test: Growth inhibition of human DU145 cells assessed as cell growth at 10 uM after 48 hrs by sulforhodamine B assay; type: functional; settings: DU-145, 48 h, read-out: Activity
[2] = Growth inhibition of human NCI-ADR-RES cells assessed as cell growth at 10 uM after 48 hrs by sulforhodamine B assay; type: functional; settings: read-out: Activity
OVCAR-5 = test: Growth inhibition of human OVCAR5 cells assessed as cell growth at 10 uM after 48 hrs by sulforhodamine B assay; type: functional; settings: OVCAR-5, 48 h, read-out: Activity
OVCAR-8 [3] = test: Growth inhibition of human OVCAR8 cells assessed as cell growth at 10 uM after 48 hrs by sulforhodamine B assay; type: functional; settings: OVCAR-8, 48 h, read-out: Activity
OVCAR-3 = test: Growth inhibition of human OVCAR3 cells assessed as cell growth at 10 uM after 48 hrs by sulforhodamine B assay; type: functional; settings: OVCAR-3, 48 h, read-out: Activity
SK-MEL-28 = test: Growth inhibition of human SK-MEL-28 cells assessed as cell growth at 10 uM after 48 hrs by sulforhodamine B assay; type: functional; settings: SK-MEL-28, 48 h, read-out: Activity
M14 = test: Growth inhibition of human M14 cells assessed as cell growth at 10 uM after 48 hrs by sulforhodamine B assay; type: functional; settings: M14, 48 h, read-out: Activity
SNB-19 = test: Growth inhibition of human SNB19 cells assessed as cell growth at 10 uM after 48 hrs by sulforhodamine B assay; type: functional; settings: SNB-19, 48 h, read-out: Activity
SF-539 [4] = test: Growth inhibition of human SF539 cells assessed as cell growth at 10 uM after 48 hrs by sulforhodamine B assay; type: functional; settings: SF-539, 48 h, read-out: Activity
HT-29 = test: Growth inhibition of human HT-29 cells assessed as cell growth at 10 uM after 48 hrs by sulforhodamine B assay; type: functional; settings: HT-29, 48 h, read-out: Activity
COLO 205 = test: Growth inhibition of human COLO205 cells assessed as cell growth at 10 uM after 48 hrs by sulforhodamine B assay; type: functional; settings: COLO 205, 48 h, read-out: Activity
NCI-H322M [5] = test: Growth inhibition of human NCI-H322M cells assessed as cell growth at 10 uM after 48 hrs by sulforhodamine B assay; type: functional; settings: read-out: Activity
HOP-92 = test: Growth inhibition of human HOP92 cells assessed as cell growth at 10 uM after 48 hrs by sulforhodamine B assay; type: functional; settings: HOP-92, 48 h, read-out: Activity
K562 = test: Growth inhibition of human K562 cells assessed as cell growth at 10 uM after 48 hrs by sulforhodamine B assay; type: functional; settings: K562, 48 h, read-out: Activity
SW-620 = test: Growth inhibition of human SW620 cells after 48 hrs by sulforhodamine B assay; type: functional; settings: SW-620, 48 h
KM12 = test: Growth inhibition of human KM12 cells after 48 hrs by sulforhodamine B assay; type: functional, cell-based; settings: KM12, 48 h
HCT-116 = test: Growth inhibition of human HCT116 cells after 48 hrs by sulforhodamine B assay; type: functional; settings: HCT-116, 48 h
HCT-15 = test: Growth inhibition of human HCT15 cells after 48 hrs by sulforhodamine B assay; type: functional; settings: HCT-15, 48 h
[6] = Growth inhibition of human HCC2998 cells after 48 hrs by sulforhodamine B assay; type: functional; settings: HCC 2998, 48 h
NCI-H322M [7] = test: Growth inhibition of human NCI-H322M cells after 48 hrs by sulforhodamine B assay; type: functional
A549 = test: Growth inhibition of human A549/ATCC cells after 48 hrs by sulforhodamine B assay; type: functional; settings: A549, 48 h
SR = test: Growth inhibition of human SR cells after 48 hrs by sulforhodamine B assay; type: functional
MDA-MB-468 = test: Growth inhibition of human MDA-MB-468 cells after 48 hrs by sulforhodamine B assay; type: functional, cell-based; settings: MDA-MB-468, 48 h
DU-145 [8] = test: Growth inhibition of human DU145 cells after 48 hrs by sulforhodamine B assay; type: functional; settings: DU-145, 48 h
UO-31 = test: Growth inhibition of human UO31 cells after 48 hrs by sulforhodamine B assay; type: functional; settings: UO-31, 48 h
ACHN = test: Growth inhibition of human ACHN cells after 48 hrs by sulforhodamine B assay; type: functional
786-0 = test: Growth inhibition of human 786-0 cells after 48 hrs by sulforhodamine B assay; type: functional; settings: 786-0, 48 h
OVCAR-8 [9] = test: Growth inhibition of human OVCAR8 cells after 48 hrs by sulforhodamine B assay; type: functional; settings: OVCAR-8, 48 h
UACC-62 = test: Growth inhibition of human UACC62 cells after 48 hrs by sulforhodamine B assay; type: functional; settings: UACC-62, 48 h
UACC-257 = test: Growth inhibition of human UACC257 cells after 48 hrs by sulforhodamine B assay; type: functional; settings: UACC-257, 48 h
U-251 = test: Growth inhibition of human U251 cells after 48 hrs by sulforhodamine B assay; type: functional; settings: U-251, 48 h
SF-539 [10] = test: Growth inhibition of human SF539 cells after 48 hrs by sulforhodamine B assay; type: functional; settings: SF-539, 48 h
[11] = read-out: LC50 (the source's name)

O=C(Nc1cccc(-n2cc(-c3ccncc3)c(-c3ccc(Cl)c(O)c3)n2)c1)c1ccccc1
growth at 10 µM (MCF7): 62.6% | growth at 10 µM (MDA-MB-231): 63.2% | growth at 10 µM (DU-145 [1]): 56.9% | growth at 10 µM [2]: 62.7% | growth at 10 µM (OVCAR-5): 115% | growth at 10 µM (OVCAR-8 [3]): 50.9% | growth at 10 µM (OVCAR-3): 82.1% | growth at 10 µM (SK-MEL-28): 48.1% | growth at 10 µM (M14): 54.9% | growth at 10 µM (SNB-19): 99.7% | growth at 10 µM (SF-539 [4]): 74.7% | growth at 10 µM (HT-29): 53.5% | growth at 10 µM (COLO 205): 100% | growth at 10 µM (NCI-H322M [5]): 89.2% | growth at 10 µM (HOP-92): 3.59% | growth at 10 µM (K562): 60.7%

COc1cc(-c2nn(-c3cccc(NC(=O)Nc4ccc(Cl)c(Cl)c4)c3)cc2-c2ccncc2)ccc1Cl
growth at 10 µM (MCF7): 1.73% | growth at 10 µM (MDA-MB-231): -40.1% | growth at 10 µM (DU-145 [1]): 20% | GI50 (SW-620): 1590 nM | TGI (SW-620): > 50000 nM | CC50 (SW-620; [11]): > 50000 nM | GI50 (KM12): 811 nM | IC50 (KM12): 810 nM | TGI (KM12): 2770 nM | CC50 (KM12; [11]): 49500 nM | GI50 (HCT-116): 1210 nM | TGI (HCT-116): > 50000 nM | CC50 (HCT-116; [11]): > 50000 nM | GI50 (HCT-15): 1230 nM | LC50 (HCT-15): > 50000 nM | TGI (HCT-15): > 50000 nM | GI50 [6]: 1560 nM | TGI [6]: 6200 nM | CC50 [6, 11]: > 50000 nM | GI50 (NCI-H322M [7]): 1690 nM | TGI (NCI-H322M [7]): > 50000 nM | CC50 (NCI-H322M [7]; [11]): > 50000 nM | GI50 (A549): 745 nM | LC50 (concentration killing 50% of starting cells) (A549): > 50000 nM | TGI (A549): > 50000 nM | GI50 (SR): 932 nM | TGI (SR): 2800 nM | CC50 (SR; [11]): > 50000 nM | growth at 10 µM [2]: 0.32% | growth at 10 µM (OVCAR-5): 38% | growth at 10 µM (OVCAR-8 [3]): -17.2% | growth at 10 µM (OVCAR-3): -10% | growth at 10 µM (SK-MEL-28): 4.96% | growth at 10 µM (M14): 0.29% | growth at 10 µM (SNB-19): 27.2% | growth at 10 µM (SF-539 [4]): 12.3% | growth at 10 µM (HT-29): 1.12% | growth at 10 µM (COLO 205): -80.4% | growth at 10 µM (NCI-H322M [5]): 38.8% | growth at 10 µM (HOP-92): -34.3% | GI50 (MDA-MB-468): 567 nM | IC50 (MDA-MB-468): 570 nM | TGI (MDA-MB-468): 2270 nM | CC50 (MDA-MB-468; [11]): > 50000 nM | GI50 (DU-145 [8]): 1520 nM | LC50 (DU-145 [8]): > 50000 nM | TGI (DU-145 [8]): 34200 nM | GI50 (UO-31): 845 nM | TGI (UO-31): 4980 nM | CC50 (UO-31; [11]): > 50000 nM | GI50 (ACHN): 1000 nM | TGI (ACHN): > 50000 nM | CC50 (ACHN; [11]): > 50000 nM | GI50 (786-0): 1310 nM | TGI (786-0): 4470 nM | CC50 (786-0; [11]): > 50000 nM | GI50 (OVCAR-8 [9]): 931 nM | TGI (OVCAR-8 [9]): 3610 nM | CC50 (OVCAR-8 [9]; [11]): > 50000 nM | GI50 (UACC-62): 773 nM | LC50 (50% lethal concentration) (UACC-62): 4490 nM | TGI (UACC-62): 1860 nM | GI50 (UACC-257): 1040 nM | TGI (UACC-257): 3110 nM | CC50 (UACC-257; [11]): > 50000 nM | GI50 (U-251): 820 nM | LC50 (concentration killing 50% of cells) (U-251): > 50000 nM | TGI (U-251): 2470 nM | GI50 (SF-539 [10]): 965 nM | LC50 (concentration killing 50% of cells) (SF-539 [10]): > 50000 nM | TGI (SF-539 [10]): 3080 nM | growth at 10 µM (K562): 3.63%

O=C(Nc1cccc(-n2cc(-c3ccncc3)c(-c3ccc(Cl)c(O)c3)n2)c1)c1ccc(Cl)c(C(F)(F)F)c1
growth at 10 µM (MCF7): 93.9% | growth at 10 µM (MDA-MB-231): 73.5% | growth at 10 µM (DU-145 [1]): 95% | growth at 10 µM [2]: 104% | growth at 10 µM (OVCAR-5): 99.6% | growth at 10 µM (OVCAR-8 [3]): 96.8% | growth at 10 µM (OVCAR-3): 95.8% | growth at 10 µM (SK-MEL-28): 94.1% | growth at 10 µM (M14): 82.5% | growth at 10 µM (SNB-19): 119% | growth at 10 µM (SF-539 [4]): 94.7% | growth at 10 µM (HT-29): 105% | growth at 10 µM (COLO 205): 104% | growth at 10 µM (NCI-H322M [5]): 108% | growth at 10 µM (K562): 105%
